Reference: patent US4258185A, “Pyridazinone compounds” (Yoshitomi Pharmaceutical Industries, Ltd., priority 1980, dated 1981)
Counter-ions that a name gives are not always drawn.

Tests used:
platelet aggregation [1] = assay: Inhibitory activity on platelet aggregation in rats (ADP-induced, after oral treatment); assay type: in vivo; conditions: Rattus norvegicus, 2 hours after oral treatment, 1.5×10^-5 M adenosine diphosphate, read-out: Percent inhibition of platelet aggregation, Rat
Experimental: (§1) I. Inhibitory activity on platelet aggregation in rats and rabbits
(§2) The citrated blood was obtained 2 hours after the oral treatment with test compounds. The platelet aggregation of platelet rich-plasma was induced by addition of 1.5×10^-5 M adenosine diphosphate (final concentration) and was measured with a Born type six channel aggregometer (G.V.R. Born, J. Physiol. 162, 67 (1962)). […] II. Antihypertensive activity in spontaneously hypertensive rats

[2] = test system: spontaneously hypertensive rats; assay: Antihypertensive activity in spontaneously hypertensive rats (tail blood pressure); assay type: in vivo, rat; conditions: po, decrease of maximum blood pressure at 5 hours after treatment
Experimental: as §2
A group of 5 spontaneously hypertensive rats (300-350 g) was used. Tail blood pressure was determined by a rat tail manometer (NARCO, PE-300) without anesthesia immediately before and 5 hours after the oral treatment with test compounds. The rat was warmed at 40° C. for 10 minutes. The apparatus detects blood flow pulses in the tail by a pulse sensor. The arterial blood flow was interrupted by applying pressure to the tail through a pneumatic cuff. The blood flow reappeared when the cuff pressure was decreased. The value was approximately equal to the maximum blood pressure.

platelet aggregation [3] = assay: Inhibitory activity on platelet aggregation in rabbits (ADP-induced, after oral treatment); assay type: in vivo; conditions: Oryctolagus cuniculus, 2 hours after oral treatment, 1.5×10^-5 M adenosine diphosphate, ± SE, read-out: Percent inhibition of platelet aggregation, Rabbit
Experimental: as §1, §2

In the case of CCN1C(=O)CCc2cc(C3=NNC(=O)CC3COC(C)=O)ccc21 (stereo not drawn) [Compound I, 6-(5-Acetoxymethyl-3-oxo-2,3,4,5-tetrahydropyridazin-6-yl)-1-ethyl-1,2,3,4-tetrahydroquinolin-2-one], the inhibition at 3 mg/kg (platelet aggregation [1]) is reported as 46% and the “Decrease of tail blood pressure in SHR” value ([2]; 30 mg/kg) is reported as 47 mmHg.
For CC1CC(=O)NN=C1c1ccc2c(c1)C(C)(C)CC(=O)N2C (stereo not drawn) [Compound C, 6-(5-Methyl-3-oxo-2,3,4,5-tetrahydropyridazin-6-yl)-1,4,4-trimethyl-1,2,3,4-tetrahydroquinolin-2-one], the inhibition at 3 mg/kg (platelet aggregation [1]) was 59%, the inhibition at 3 mg/kg (platelet aggregation [3]) was 93 ± 1% and the “Decrease of tail blood pressure in SHR” value ([2]; 3 mg/kg) was 48 mmHg. The “Decrease of tail blood pressure in SHR” value ([2]; 30 mg/kg) was 63 mmHg.
CC1CC(=O)N(CCN2CCOCC2)N=C1c1ccc2c(c1)CCC(=O)N2C (stereo not drawn) [Compound K, 6-[5-Methyl-2-(2-morpholinoethyl)-3-oxo-2,3,4,5-tetrahydropyridazin-6-yl]-1-methyl-1,2,3,4-tetrahydroquinolin-2-one hydrochloride hemihydrate] was tested, and the inhibition at 3 mg/kg (platelet aggregation [1]) was 51%, the inhibition at 3 mg/kg (platelet aggregation [3]) was 75 ± 8% and the “Decrease of tail blood pressure in SHR” value ([2]; 3 mg/kg) was 45 mmHg.
In the case of CCN1C(=O)CCc2cc(C3=NNC(=O)CC3C)ccc21 (stereo not drawn) [Compound J, 6-(5-Methyl-3-oxo-2,3,4,5-tetrahydropyridazin-6-yl)-1-ethyl-1,2,3,4-tetrahydroquinolin-2-one], the inhibition at 3 mg/kg (platelet aggregation [1]) is reported as 35%.
For CC(=O)OCC1CC(=O)NN=C1c1ccc2c(c1)CCC(=O)N2C (stereo not drawn) [Compound B, 6-(5-Acetoxymethyl-3-oxo-2,3,4,5-tetrahydropyridazin-6-yl)-1-methyl-1,2,3,4-tetrahydroquinolin-2-one], the inhibition at 3 mg/kg (platelet aggregation [1]) was 51%, the inhibition at 3 mg/kg (platelet aggregation [3]) was 85 ± 6% and the “Decrease of tail blood pressure in SHR” value ([2]; 3 mg/kg) was 31 mmHg. The “Decrease of tail blood pressure in SHR” value ([2]; 30 mg/kg) was 62 mmHg.
CCC1CC(=O)NN=C1c1ccc2c(c1)CCC(=O)N2CC (stereo not drawn) [Compound G, 6-(5-Ethyl-3-oxo-2,3,4,5-tetrahydropyridazin-6-yl)-1-ethyl-1,2,3,4-tetrahydroquinolin-2-one] showed an inhibition at 3 mg/kg (platelet aggregation [1]) of 34%.
CC1CC(=O)NN=C1c1ccc2c(c1)C(C)CC(=O)N2C (stereo not drawn) [Compound D, 6-(5-Methyl-3-oxo-2,3,4,5-tetrahydropyridazin-6-yl)-1,4-dimethyl-1,2,3,4-tetrahydroquinolin-2-one] was tested, and the inhibition at 0.1 mg/kg (platelet aggregation [1]; 0.1 mg/kg) was 38%, the inhibition at 0.3 mg/kg (platelet aggregation [3]; 0.3 mg/kg) was 78 ± 6% and the “Decrease of tail blood pressure in SHR” value ([2]; 0.3 mg/kg) was 16 mmHg. For the same compound, the “Decrease of tail blood pressure in SHR” value ([2]; 3 mg/kg) was 71 mmHg.
Work on CN1C(=O)CC(C)(C)c2cc(C3=NNC(=O)CC3CO)ccc21 (stereo not drawn) [Compound E, 6-(5-Hydroxymethyl-3-oxo-2,3,4,5-tetrahydropyridazin-6-yl)-1,4,4-trimethyl-1,2,3,4-tetrahydroquinolin-2-one] yielded an inhibition at 10 mg/kg (platelet aggregation [1]; 10 mg/kg) of 43% and an inhibition at 30 mg/kg (platelet aggregation [3]; 30 mg/kg) of 48 ± 16%.
Compound CCN1C(=O)CCc2cc(C3=NNC(=O)CC3CO)ccc21 (stereo not drawn) [Compound H, 6-(5-Hydroxymethyl-3-oxo-2,3,4,5-tetrahydropyridazin-6-yl)-1-ethyl-1,2,3,4-tetrahydroquinolin-2-one] has an inhibition at 3 mg/kg (platelet aggregation [1]) of 46%.
With CN1C(=O)CCc2cc(C3=NNC(=O)CC3CO)ccc21 (stereo not drawn) [Compound F, 6-(5-Hydroxymethyl-3-oxo-2,3,4,5-tetrahydropyridazin-6-yl)-1-methyl-1,2,3,4-tetrahydroquinolin-2-one] the inhibition at 3 mg/kg (platelet aggregation [1]) was 62% and the “Decrease of tail blood pressure in SHR” value ([2]; 30 mg/kg) was 92 mmHg.
